# Tests used:
# [1] = test system: gastric acid secretion, isolated gastric glands; assay: In vitro inhibition of gastric acid secretion in isolated mouse gastric glands (14C-aminopyrine accumulation); assay type: cell-based; settings: 100 μM
# Method: Acid secretion is measured indirectly by the accumulation of the weak base ^14 C-aminopyrine in the isolated murine gastric glands of mouse. The assay is performed in polypropylene eppendorf tubes containing 0.5 mL of resuspended mouse gastric glands. In addition, tubes contain the tested drug, acid secretagogues (e.g. histamine, di-butyryl cyclic AMP (cAMP), carbachol) and ^14 C-aminopyrine. Tubes are incubated for 60 min. at 37° C. and continuously rotated. The reaction is stopped by centrifugation of the gland suspension for five min. at 1500 g. Supernatant is aspirated leaving the pellet containing intact gastric glands. The pellet is washed extensively and digested overnight in 1 mL of Protosol (Amersham). After neutralisation with acetic acid and addition of scintillation fluid, the radioactivity is counted in a beta-counter (Beckman). The amount of radioactivity trapped in the pellet corresponds directly with the amount of acid being secreted. Each experimental point is done in triplicate. In each experiment, energy independent consumption was estimated with 0.1 mM of dinitrophenol and basal acid secretion in the absence of acid stimulants. These values were then subtracted from corresponding results in order to calculate basal or secretagogue stimulated acid secretion. […] Each experiment is repeated a number of times and all results are expressed as a % of the maximum stimulation.
# Solubility in water = assay type: physicochemical
# Gastric Acid Secretions [2] = assay: Effects on gastric acid secretion in rats, dose-dependent study (histamine-stimulated); assay type: in vivo, Sprague-Dawley rats; settings: 3, 30, 300 μmol/kg doses, oral, anesthetized rats; histamine 5 mg/kg i.v.
# Method: Effects of compounds of Formula I on Gastric Acid Secretions in Rats (Dose-dependent study)
# Fasted, adult (140-240 g), male, Sprague-Dawley rats were fasted for 24 h from food, but not water, and then treated by oral gavage with 1 to 1.5 mL total volume of 4 different doses (0.3, 3, 30, and 300 μmol/kg) of each compound on different days. Two hours later, rats were anesthetized with a combination of pentobartital and thiopental, the abdomen was opened and the pylorus was ligated, and tracheal, gastric, and peripheral venous canulas were placed. The stomachs were lavaged with 10 mL 0.9% saline every 10 min. for 30 min and the gastric effluent collected in receptacles. Acid output was determined in each gastric effluent sample by back-titration to pH 7.0 using 0.02M NaOH. Then, 5 mL of an […] meal (pH 5.5) was instilled into the stomachs, mixed, and drained after 10 min each time for 2 hours. Acid output was determined in each gastric effluent sample by back-titration to pH 7.0 using 0.02 M NaOH. After measuring basal acid output for at least 30 minutes, acid output was then measured during a 2 h intravenous infusion of histamine (5 mg/kg).
# [3] = Acid stability in 6 molar hydrochloric acid; assay type: physicochemical; settings: room temperature
# Method: Acid stability of 7-methoxy-3-[(4-methoxy-3,5-dimethyl-2-pyridyl)oxomethyl]-1,2,4-thiadiazolo[4,5-a]benzimidazole.
# To examine acid stability of the captioned compound, the compound was dissolved in a minimum volume of methanol and the resulting solution was added to a 6 molar solution of hydrochloric acid.
# Gastric Acid Secretions [4] = assay: Effects on (meal-stimulated) gastric acid secretion in rats; assay type: in vivo, Sprague-Dawley rats
# Method: Effects of compounds of Formula I on Gastric Acid Secretions in Rats
# Fasted, adult (140-240 g), male, Sprague-Dawley rats were fasted for 24 h from food, but not water, and then treated by oral gavage with 1 to 1.5 mL total volume of compound of Formula I (300 μmmol/Kg) on different days. Two hours later, rats were anesthetized with a combination of pentobartital and thiopental, the abdomen was opened and the pylorus was ligated, and tracheal, gastric, and peripheral venous canulas were placed. The stomachs were lavaged with 10 mL 0.9% saline every 10 min. for 30 min and the gastric effluent collected in receptacles to determine the basal acid secretion. Acid output was determined in each gastric effluent sample by back-titration to pH 7.0 using 0.02M NaOH. Then, 5 mL of an 8% peptone meal (pH 5.5) was instilled into the stomachs, mixed, and drained after 10 min each time for 2 hours. Acid output was determined in each gastric effluent containing the peptone meal by back-titration to pH 5.5 using 0.02 M NaOH.
# [5] = Reaction with phenethyl mercaptan (thiol model for the H+/K+-ATPase); assay type: physicochemical; settings: in methanol
# Description: The reactivity of the compounds in the process of the invention can be illustrated by means of their reaction with phenethyl mercaptan. This is generally illustrated in FIG. 1 of the accompanying drawings, with R of the thiol reagent representing a phenethyl group. In addition, based on prior art (Im et al., J. Biol. Chem., 1985, 260, 4591; Sturm et al., J. Org. Chem., 1987, 52, 4573; Lorentzon et al., Biochim., Biophys. Acta, 1985, 817, 25), phenethylmercaptan is useful as a model for the H^+ /K^+ -ATPase to examine the reactivity of compounds towards thiol group(s) of the enzyme. […] The compound of formula XI reacts with an additional mole of phenethyl mercaptan to produce a compound of formula XII which decomposes to give compounds of formula XIII and XIV.
# A minimum of two moles of phenethyl mercaptan for 1 mole of substrate is required to effect the ring opening of 1,2,4-thiadiazolo[4,5-a]benzimidazoles to give the compound of formula XII. In general, the ring opening reaction is slow with two moles of phenethyl mercaptan. The reaction rate increases rapidly when a large excess of phenethyl mercaptan (for example, 25 fold) is used. […] This degradation of the trapped thiol intermediate to form the disulfide has also been observed in the chemical model for the H^+ /K^+ -ATPase (Lindberg et al., J. Med. Chem., 1986, 29, 1329). […]
compound,measurement,setting,value
"CN1CCN(c2nsc3nc4ccccc4n23)CC1.Cl.Cl [3-(4-methyl-1-piperazinyl)-1,2,4-thiadiazolo [4,5-a]benzimidazole dihydrochloride]",inhibition of cAMP stimulated acid secretion,[1]; cAMP stimulated,completely inhibited
same,inhibition of histamine stimulated acid secretion,[1]; histamine stimulated,completely inhibited
"COc1ccc2c(c1)nc1snc(C(=O)c3ncc(C)c(OC)c3C)n12 [7-methoxy-3-[(4-methoxy-3,5-dimethyl-2-pyridyl)oxomethyl]-1,2,4-thiadiazolo[4,5-a]benzimidazole]",solubility in water,Solubility in water,limited solubility in water
same,inhibition of histamine-stimulated acid secretion,Gastric Acid Secretions [2],significant (p<0.05) inhibition
same,recovery after stirring in acid,[3]; 48 hours,totally recovered
same,acid stability,[3],very stable in acid
same,inhibition of meal-stimulated acid secretion,"Gastric Acid Secretions [4]; 300 μmmol/Kg, rats, oral",significant (p<0.05) inhibition
same,"level of acid output, peptone stimulated","Gastric Acid Secretions [4]; after 1 h, oral gavage, rats, 300 μmmol/Kg, vehicle 160 numol/30 min",20 μmmol/30 min
same,suppression of gastric acid secretion in animal model,Gastric Acid Secretions [4]; animal model,active in the suppression of gastric acid secretion
"CN(C)c1nsc2nc3ccccc3n12 [Me2 N, 3-(dimethylamino)-1,2,4-thiadiazolo[4,5-a]benzimidazole]",time to complete reaction with phenethyl mercaptan,[5],≤ 1 min
"COc1nsc2nc3ccccc3n12 [MeO, 3-methoxy-1,2,4-thiadiazolo[4,5-a]benzimidazole]",time to complete reaction with phenethyl mercaptan,[5],≤ 1 min

# Source: patent US6114537A, “Process for scavenging thiols” (Apotex Inc., priority 1997, dated 2000)
